Experimental data from BindingDB's records for doi:10.1097/00001813-200302000-00012 (Korea Research Institute of Chemical Technology, 2003).

Experiments:
[1] = TP_TRANSPORTER: drug resistance (paclitaxel) in MES-SA/DX5 cells
[2] = TP_TRANSPORTER: drug resistance (paclitaxel) in HCT15/CL02 cells

| IC50 [1] [µM] | IC50 [2] [µM] | SMILES |
| --- | --- | --- |
| 6.63 | 3.04 | COc1ccc(CCN(C)CCC[C@@]2(C#N)CCc3c2ccc(OC)c3OC)cc1OC |
| 7.65 | 3.11 | COc1ccc(CCN(C)CCC[C@]2(C#N)CCc3c2ccc(OC)c3OC)cc1OC |
